In the assay the target is T1, acetylcholine muscarinic M1 receptor (Homo sapiens, UniProt P11229).
T1 construct: expressed in transfected cells; host or cells: CHOnfat cells (CHO cells with an NFAT reporter) expressing hM1, kept under Geneticin selection
T1 sequence (P11229 1-460): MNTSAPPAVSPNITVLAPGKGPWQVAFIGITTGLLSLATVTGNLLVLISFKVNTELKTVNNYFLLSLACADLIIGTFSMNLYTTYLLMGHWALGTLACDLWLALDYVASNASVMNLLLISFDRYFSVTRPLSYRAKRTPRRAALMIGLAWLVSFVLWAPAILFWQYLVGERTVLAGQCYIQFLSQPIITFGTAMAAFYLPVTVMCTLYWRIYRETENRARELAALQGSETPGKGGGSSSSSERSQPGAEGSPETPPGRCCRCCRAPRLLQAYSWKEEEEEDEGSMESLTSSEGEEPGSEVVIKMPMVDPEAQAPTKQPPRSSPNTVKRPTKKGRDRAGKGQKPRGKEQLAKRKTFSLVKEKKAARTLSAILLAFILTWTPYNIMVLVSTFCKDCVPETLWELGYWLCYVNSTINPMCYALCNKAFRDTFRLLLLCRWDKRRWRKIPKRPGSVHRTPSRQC
The assay is described as follows: muscarinic FLIPR assay: intracellular calcium in CHOnfat/hM1 cells, potentiation of EC20 acetylcholine. Conditions: Table 1; CHOnfat/hM1 cells, FLIPR, EC20 acetylcholine (3 nM final); read-out: M1 Pot. The assay is classed as cell-based. The gist of the method:
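CHOnfat cells stably expressing human M1, Fluo-4AM-loaded, in HBSS with 20 mM HEPES, 2.5 mM probenecid, 1% BSA. Compounds preincubated 4 min (printed "4 mM") before an EC20 acetylcholine challenge (3 nM final). FLIPR intracellular Ca²⁺ signal compared with 3 nM acetylcholine alone to detect potentiation.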
Background: A change in cytosolic calcium serves as a functional read-out for many receptors and channels.
In the case of `N#CC1(c2ccccn2)CCN(Cc2cc3c(c4ccccc24)CN(c2ccccc2F)C3=O)CC1` [Example 62, 1-{[2-(2-fluorophenyl)-3-oxo-2,3-dihydro-1H-benzo[e]isoindol-5-yl]methyl}-4-pyridin-2-ylpiperidine-4-carbonitrile], the EC50 is 650 nM. The figure for `Cc1ccnc(C2(C#N)CCN(Cc3cc4c(c5ccccc35)CN(c3ccccc3F)C4=O)CC2)c1` [Example 63, 1-{[2-(2-fluorophenyl)-3-oxo-2,3-dihydro-1H-benzo[e]isoindol-5-yl]methyl}-4-(4-methylpyridin-2-yl)piperidine-4-carbonitrile] is 545 nM; for `Cc1ccnc(C2(C#N)CCN(Cc3cc4c(c5ccccc35)CN([C@H]3CCCC[C@@H]3O)C4=O)CC2)c1` [Example 64, 1-({2-[(1S,2S)-2-hydroxycyclohexyl]-3-oxo-2,3-dihydro-1H-benzo[e]isoindol-5-yl}methyl)-4-(4-methylpyridin-2-yl)piperidine-4-carbonitrile] it is 9.7 nM.

On to `O=C1c2cc(CN3CCc4ccccc4C3c3ccncc3)c3ccccc3c2CN1c1ccccc1F` (centres unmarked) [Example 65, 2-(2-fluorophenyl)-5-{[1-(pyridin-4-yl)-3,4-dihydroisoquinolin-2(1H)-yl]methyl}-1,2-dihydro-3H-benzo[e]isoindol-3-one], for which the EC50 was 1370 nM.

Take `Cn1cc(N2CCN(Cc3cc4c(c5ccccc35)CN(c3ccccc3F)C4=O)CC2)cn1` [Example 66, 2-(2-fluorophenyl)-5-{[4-(1-methyl-1H-pyrazol-4-yl)piperazin-1-yl]methyl}-1,2-dihydro-3H-benzo[e]isoindol-3-one]: the EC50 was 273 nM. The figure for `O=C1c2cc(CN3CCN(c4ccc(F)cc4)CC3)c3ccccc3c2CN1[C@H]1CCCC[C@@H]1O` [Example 67, 5-{[4-(4-fluorophenyl)piperazin-1-yl]methyl}-2-[(1S,2S)-2-hydroxycyclohexyl]-1,2-dihydro-3H-benzo[e]isoindol-3-one] is 67 nM; for `CS(=O)(=O)c1ccc(N2CCN(Cc3cc4c(c5ccccc35)CN([C@H]3CCCC[C@@H]3O)C4=O)CC2)cc1` [Example 68, 2-[(1S,2S)-2-hydroxycyclohexyl]-5-({4-[4-(methylsulfonyl)phenyl]piperazin-1-yl}methyl)-1,2-dihydro-3H-benzo[e]isoindol-3-one] it is 47 nM. The same measure for `COc1ccc(N2CCN(Cc3cc4c(c5ccccc35)CN([C@H]3CCCC[C@@H]3O)C4=O)CC2)cc1` [Example 69, 2-[(1S,2S)-2-hydroxycyclohexyl]-5-{[4-(4-methoxyphenyl)piperazin-1-yl]methyl}-1,2-dihydro-3H-benzo[e]isoindol-3-one]: 49 nM; for `COc1ccc(N2CCN(Cc3cc4c(c5ccccc35)CN([C@H]3CCCC[C@@H]3O)C4=O)C(C)C2)cc1` (stereo partly drawn) [Example 70, 2-[(1S,2S)-2-hydroxycyclohexyl] 5-{[4-(4-methoxyphenyl)-2-methylpiperazin-1-yl]methyl}-1,2-dihydro-3H-benzo[e]isoindol-3-one]: 150 nM. The figure for `COc1ccc(N2CC3CC2CN3Cc2cc3c(c4ccccc24)CN([C@H]2CCCC[C@@H]2O)C3=O)cc1` (some centres unmarked) [Example 71] is 315 nM; for `O=C1c2cc(CN3CCN(c4ccccc4)CC3)c3ccccc3c2CN1[C@H]1CCCC[C@@H]1O` [Example 72, 2-[(1S,2S)-2-hydroxycyclohexyl]-5-[(4-phenylpiperazin-1-yl)methyl]-1,2-dihydro-3H-benzo[e]isoindol-3-one] it is 72 nM. For `CC1c2c(cc(CN3CCN(c4ccccc4)CC3)c3ccccc23)C(=O)N1[C@@H]1CCCC[C@@H]1O` (stereo partly drawn) [Example 73, 2-[(1R,2S)-2-hydroxycyclohexyl]-1-methyl-5-[(4-phenylpiperazin-1-yl)methyl]-1,2-dihydro-3H-benzo[e]isoindol-3-one], the EC50 is 198 nM. On to `O=C1c2cc(CN3CCN(c4ccccn4)CC3)c3ccccc3c2CN1[C@H]1CCCC[C@@H]1O` [Example 74, 2-[(1S,2S)-2-hydroxycyclohexyl]-5-[(4-pyridin-2-ylpiperazin-1-yl)methyl]-1,2-dihydro-3H-benzo[e]isoindol-3-one], for which the EC50 worked out at 46 nM. The figure for `O=C1c2cc(CN3CCN(c4ccccn4)CC3)c3ccccc3c2CN1c1ccccc1F` [Example 75, 2-(2-fluorophenyl)-5-{[4-(pyridin-2-yl)piperazin-1-yl]methyl}-1,2-dihydro-3H-benzo[e]isoindol-3-one] is 78 nM; for `O=C1c2cc(CN3CCN(c4cccnc4)CC3)c3ccccc3c2CN1[C@H]1CCCC[C@@H]1O` [Example 76, 2-[(1S,2S)-2-hydroxycyclohexyl]-5-[(4-pyridin-3-ylpiperazin-1-yl)methyl]-1,2-dihydro-3H-benzo[e]isoindol-3-one] it is 37 nM. The figure for `O=C1c2cc(CN3CCN(c4ccncc4)CC3)c3ccccc3c2CN1[C@H]1CCCC[C@@H]1O` [Example 77, 2-[(1S,2S)-2-hydroxycyclohexyl]-5-[(4-pyridin-4-ylpiperazin-1-yl)methyl]-1,2-dihydro-3H-benzo[e]isoindol-3-one] is 213 nM; for `CC1CN(Cc2cc3c(c4ccccc24)CN([C@H]2CCCC[C@@H]2O)C3=O)CCN1c1ccccc1` (stereo partly drawn) [Example 78, 2-[(1S,2S)-2-hydroxycyclohexyl]-5-[(3-methyl-4-phenylpiperazin-1-yl)methyl]-1,2-dihydro-3H-benzo[e]isoindol-3-one] it is 370 nM.

Turning to `Cn1cc(N2CCN(Cc3cc4c(c5ccccc35)CN([C@H]3CCCC[C@@H]3O)C4=O)CC2)cn1` [Example 80, 2-[(1S,2S)-2-hydroxycyclohexyl]-5-{[4-(1-methyl-1H-pyrazol-4-yl)piperazin-1-yl]methyl}-1,2-dihydro-3H-benzo[e]isoindol-3-one], the EC50 stood at 1620 nM. The figure for `Cn1cc(N2CCN(Cc3cc4c(c5ccccc35)CN([C@@H]3CCCC[C@H]3O)C4=O)CC2)cn1` [Example 81, 2-[(1R,2R)-2-hydroxycyclohexyl]-5-{[4-(1-methyl-1H-pyrazol-4-yl)piperazin-1-yl]methyl}-1,2-dihydro-3H-benzo[e]isoindol-3-one] is 496 nM; for `Cn1cc(N2CCN(Cc3cc4c(c5ccccc35)CN(C3CCOCC3)C4=O)CC2)cn1` [Example 82, 5-{[4-(1-methyl-1H-pyrazol-4-yl)piperazin-1-yl]methyl}-2-(tetrahydro-2H-pyran-4-yl)-1,2-dihydro-3H-benzo[e]isoindol-3-one] it is 1590 nM. As for `Cn1cc(N2CCN(Cc3cc4c(c5ccccc35)CN(C3CCCOC3)C4=O)CC2)cn1` (centres unmarked) [Example 83, 5-{[4-(1-methyl-1H-pyrazol-4-yl)piperazin-1-yl]methyl}-2-(tetrahydro-2H-pyran-3-yl)-1,2-dihydro-3H-benzo[e]isoindol-3-one], the EC50 amounted to 3870 nM. The figure for `O=C1c2cc(CN3CCN(c4cc5ccccc5cn4)CC3)c3ccccc3c2CN1c1ccccc1F` [Example 84, 2-(2-fluorophenyl)-5-[(4-isoquinolin-3-ylpiperazin-1-yl)methyl]-1,2-dihydro-3H-benzo[e]isoindol-3-one] is 3270 nM; for `O=C1c2cc(CN3CCN(c4ccc5ncsc5c4)CC3)c3ccccc3c2CN1c1ccccc1F` [Example 85, 5-{[4-(1,3-benzothiazol-6-yl)piperazin-1-yl]methyl}-2-(2-fluorophenyl)-1,2-dihydro-3H-benzo[e]isoindol-3-one] it is 1140 nM.
